Structures can show the parent of a compound that is named as a salt.

The nature of series [1]: Storage stability, chemical purity by HPLC. The series is classed as physicochemical. The conditions noted are these: conclusion from the stability studies. The procedure:
(§1) To determine concentration, solutions were diluted in methanol; to determine purity, 2.7 mg material was dissolved in 1 mL methanol. The conditions listed below were then used. • Instrument: Agilent 1100 • Column: Waters Symmetry C18 5μ 150×3.9 mm column • Column Temperature: 25° C. • Autosampler Temperature: Not controlled • UV wavelength: 254 nm • Injection Volume: 3 μL • Flow Rate: 1.2 mL/min • Mobile Phase A: 0.01% formic acid in water • Mobile Phase B: 0.01% formic acid in ACN • Gradient program: […]
In order to assess physical and chemical stability, Ponatinib HCl crystal form 1 obtained by direct crystallization according to example 4, and the crystalline ponatinib HCl Form 1 which was obtained via Form 8 according to example 7, were stored at 25° C./60%RH and 40° C./75% RH. After 1 week, the three samples were analysed by XRPD and HPLC (chemical purity).

Series [2] can be described thus: Aqueous solubility by HPLC analysis. In kind it is physicochemical. The conditions noted are these: water, thermodynamic from solid. The procedure: as §1
A filtered solution of ponatinib HCl in acetonitrile/water (1:1) was allowed to slowly evaporate at ambient temperature. A hydrated crystal form 8 showing characteristic peaks at 6.21 and 10.5 2Theta was found. Approximately 11.4% water content was found by KF analysis. […] (peak at 90° C.).
A filtered solution of ponatinib HCl in acetone/water (1:1) was allowed to slowly evaporate. A hydrated crystal form 8 showing characteristic peaks at 6.21 and 10.5 2Theta was found. Approximately 11.4% water content was found by KF analysis. […] (peak at 90° C.).
Ponatinib HCl form 1 was slurried in water for 24 h at 22° C. A hydrated crystal form 8 showing characteristic peaks at 6.21 and 10.5 2Theta was found. Approximately 11.4% water content was found by KF analysis. […] (peak at 90° C.).

As for `Cc1ccc(C(=O)Nc2ccc(CN3CCN(C)CC3)c(C(F)(F)F)c2)cc1C#Cc1cnc2cccnn12` [Form 1 via form 8, ponatinib hydrochloride], the “chemical stability compared with form 1 obtained by direct crystallization” value in series [1] is reported as “higher chemical stability”. As a reminder, the solubility is the dissolved amount per volume that the medium holds. As to `Cc1ccc(C(=O)Nc2ccc(CN3CCN(C)CC3)c(C(F)(F)F)c2)cc1C#Cc1cnc2cccnn12` [Form 8, ponatinib hydrochloride], the solubility in series [2] was determined as 620 µg/mL.

For the origin of these results see patent US9725454B2, “Crystalline forms of ponatinib hydrochloride” (SANDOZ AG, priority 2013, dated 2017).
